The values that follow come from patent US5605892A, “Compositions of arginine amide with cyclodextrin of caffeine, and methods of use” (priority 1993, dated 1997).

A short description of data set [1]: Solubility test of argatroban in water with various compounds (shaken with excess argatroban, HPLC). The format is physicochemical. The note with it: for solubility thermodynamic at 12 h: phosphate buffer, pH 7, aqueous buffer, phosphate buffer pH 7.0, 25° C. The method, then: The solubility of argatroban in water was determined by the use of various compounds.
An excess amount of argatroban was added to a phosphate buffer (pH 7.0) containing a compound at a concentration of 1.0 W/V % and the mixture was shaken at 25° C. for 12 hours. The amount of the argatroban dissolved in this solution was measured by HPLC to determine the solubility.

The nature of data set [2]: Stability test: aqueous solutions in glass ampoules preserved in shade or under light exposure. The data set is classed as physicochemical. The conditions noted are these: argatroban with caffeine. The source says: Aqueous solutions (pH 7) containing 0.05 W/V % or 0.1 W/V % argatroban and having the formulations 1-6 shown in Table 2 below were filled in glass ampoules and preserved in shade or under light exposure of […]. Each solution was examined for pH, appearance, insoluble matter and residual content of argatroban.

Data set [3] has as its system fibrin formation in anterior sac. Briefly: Inhibition of fibrin formation in anterior sac after argon laser irradiation of iris, slit lamp evaluation. The format is in vivo, colored house rabbits. The source says: Reference Example--Argatroban concentration and inhibition of fibrin formation in anterior sac
Animal used: 18 colored house rabbits weighing 2 kg and showing no abnormality in the eyes by visual observation
Drug used: test drug (a solution of argatroban at a concentration of 0.1 W/V % or 0.2 W/V % prepared according to the eye drop of Example 1)
: control (physiological saline)
Test: Fibrin was formed in anterior sac by irradiation at four sites in iris with argon laser (AC-3500, Nidek). The irradiation was conducted at a spot size of 100 μm, time 0.2 sec and output 1 watt. The fibrin in anterior sac was evaluated according to the evaluation criteria given below for the visual observation with time with a slit lamp after the irradiation up to 3 hours thereafter.
The test drug argatroban was administered 7 times by installation of 50 μl of the drug to one of the eyes every 10 minutes beginning from 30 minutes before the laser irradiation to 30 minutes after the irradiation, and physiological saline was administered to the other eye.
Slit lamp observation: The presence of fibrin at the 4 sites irradiated with laser was graded (0 or 1). When the fibrin amount was great, the grade was doubled. The fibrin in pupil region was graded in five stages of from 0 to 4 points. The full mark was; irradiation site: 4 points×2+pupil region: 4 points=12 points.

The nature of data set [4]: Solubility of argatroban in water (background statement). The data set is classed as physicochemical. The conditions noted are these: 25° C., pH range 7.2-7.8. The method, then: (§1) Taking one of the aforementioned arginine amides, (2R,4R)4-methyl-1-[N^2 -((RS)-3-methyl-1,2,3,4-tetrahydro-8-quinolinesulfonyl)-L-arginyl]-2-piperidinecarboxylic acid monohydrate (generally called argatroban) as an example, it is used at a concentration of 1 mg/ml or above as an eye drop or entoptic perfusate for the above-mentioned purpose.

A short description of data set [5]: Stability of aqueous solution of argatroban in a brown bottle (background statement). The data set is classed as physicochemical. Here is the method: as §1
The nature of data set [6]: Eye irritation examination. The format is in vivo, house rabbits. The source says:
Eye irritation caused by the respective, aforementioned solutions of α-cyclodextrin, β-cyclodextrin, γ-cyclodextrin and caffeine was examined using house rabbits.

A further data set has as its system fibrin formation. The note with it: administration for a few weeks after the operation, cited from earlier work.
[7] abbreviates: solutions of Example 1, compound at 1.0 W/V %.

One may read the solubility (thermodynamic) as solubility found after equilibrating the solid with the medium. Usually solubility stands for how much of the substance goes into solution per volume. A low value points to little dissolved substance. `CC1CNc2c(cccc2S(=O)(=O)N[C@@H](CCCNC(=N)N)C(=O)N2CC[C@@H](C)C[C@@H]2C(=O)O)C1.O` (mixture of isomers) [argatroban, (2R,4R)4-methyl-1-[N^2-((RS)-3-methyl-1,2,3,4-tetrahydro-8-quinolinesulfonyl)-L-arginyl]-2-piperidinecarboxylic acid monohydrate]: the thermodynamic solubility at 12 h in data set [1] (argatroban with caffeine 1.0 W/V %) was 2000 µg/mL; in data set [1] (argatroban with α-cyclodextrin 1.0 W/V %), 1340 µg/mL; in data set [1] (argatroban with β-cyclodextrin 1.0 W/V %), 2590 µg/mL; in data set [1] (argatroban with γ-cyclodextrin 1.0 W/V %), 1320 µg/mL; in data set [1] (argatroban, no compound added) it was 930 µg/mL. For the same compound, the results for the “solubility of argatroban relative to that obtained when no compound was added” value in data set [1] (with caffeine 1.0 W/V %) and in data set [1] (with β-cyclodextrin 1.0 W/V %) were “about twice” and “about thrice”, respectively. Moreover, the improvement in solubility result in data set [1] (with α-, β-, γ-cyclodextrin and caffeine) is reported as “superior improvement in solubility”. Besides, in data set [2], the stability against light entry was “improved by caffeine”. In addition, the “percent inhibition of fibrin formation” value in data set [3] (0.1 W/V % argatroban, 50 μl instilled 7 times every 10 minutes) is on record as “about 50%”. Moreover, the “inhibition of fibrin formation at every measurement point” value in data set [3] (0.1 W/V % argatroban, up to 3 hours after laser irradiation) was “significantly inhibited”. Further, the “inhibition of fibrin formation” value in data set [3] (0.2 W/V % argatroban, 50 μl instilled 7 times every 10 minutes) is “completely inhibited”. In data set [4], this compound came in with a solubility of around 900 µg/mL. The “preservation stability of aqueous solution” value in data set [5] was “can be preserved stably in a brown bottle”.
For `Cn1c(=O)c2c(ncn2C)n(C)c1=O` [caffeine], in data set [6] (setting [7]), the Eye irritation result was “no specific problems, thus showing no harmful effect on the eye tissue”.
As for `COc1ccc2c(c1)c(CC(=O)O)c(C)n2C(=O)c1ccc(Cl)cc1` [indomethacin], in the data set with fibrin formation, the “effect after entoptic operation” value was “has not shown dependable effects”. Also, the “adverse effects after entoptic operation” value with fibrin formation (though not often) was “delay in healing of wounds or disorders in cornea”.
For the compound `OC[C@H]1O[C@@H]2O[C@H]3[C@H](O)[C@@H](O)[C@@H](O[C@H]4[C@H](O)[C@@H](O)[C@@H](O[C@H]5[C@H](O)[C@@H](O)[C@@H](O[C@H]6[C@H](O)[C@@H](O)[C@@H](O[C@H]7[C@H](O)[C@@H](O)[C@@H](O[C@H]1[C@H](O)[C@H]2O)O[C@@H]7CO)O[C@@H]6CO)O[C@@H]5CO)O[C@@H]4CO)O[C@@H]3CO` [α-cyclodextrin], the Eye irritation result in data set [6] (rabbit, in vivo) is “no specific problems, thus showing no harmful effect on the eye tissue”.
Consider `OC[C@H]1O[C@@H]2O[C@H]3[C@H](O)[C@@H](O)[C@@H](O[C@H]4[C@H](O)[C@@H](O)[C@@H](O[C@H]5[C@H](O)[C@@H](O)[C@@H](O[C@H]6[C@H](O)[C@@H](O)[C@@H](O[C@H]7[C@H](O)[C@@H](O)[C@@H](O[C@H]8[C@H](O)[C@@H](O)[C@@H](O[C@H]1[C@H](O)[C@H]2O)O[C@@H]8CO)O[C@@H]7CO)O[C@@H]6CO)O[C@@H]5CO)O[C@@H]4CO)O[C@@H]3CO` [β-cyclodextrin], for which the Eye irritation entry in data set [6] (rabbit, in vivo) was “no specific problems, thus showing no harmful effect on the eye tissue”.
With `OC[C@H]1O[C@@H]2O[C@H]3[C@H](O)[C@@H](O)[C@@H](O[C@H]4[C@H](O)[C@@H](O)[C@@H](O[C@H]5[C@H](O)[C@@H](O)[C@@H](O[C@H]6[C@H](O)[C@@H](O)[C@@H](O[C@H]7[C@H](O)[C@@H](O)[C@@H](O[C@H]8[C@H](O)[C@@H](O)[C@@H](O[C@H]9[C@H](O)[C@@H](O)[C@@H](O[C@H]1[C@H](O)[C@H]2O)O[C@@H]9CO)O[C@@H]8CO)O[C@@H]7CO)O[C@@H]6CO)O[C@@H]5CO)O[C@@H]4CO)O[C@@H]3CO` [γ-cyclodextrin], the Eye irritation entry in data set [6] (setting [7]) was “no specific problems, thus showing no harmful effect on the eye tissue”.
